According to PMC7168151, “Brevinin-2GHk from Sylvirana guentheri and the Design of Truncated Analogs Exhibiting the Enhancement of Antimicrobial Activity” (Antibiotics, 2020):
In brackets after ≈: the same amount, converted by molar mass. Where a SMILES comes first, the peptide text is derived from it. Where no end group is shown, it is not given here.

Assays:
[1] = test system: HMEC-1 cells; conditions: for drop in cell viability of HMEC-1 cells: 100 µM
Procedure: The cytotoxicity of BR2GK and its derivatives were determined by hemolysis assay and MTT assay on the dermal microvascular endothelium cell line, HMEC-1 (ATCC CRL-3243).
MTT assays were conducted as outlined previously [35]. Ten thousand cells were seeded in each well of a 96-well plate. Cells were treated with different peptide concentrations for 24 h. Triton (0.1%) X-100 was used as a positive control.

[2] = test system: Candida albicans (NCYC 1467); type: cell-based
Procedure: (§1) The antimicrobial activity of synthetic peptides was determined using the minimal inhibitory concentration (MIC) and the minimal bactericidal concentration […] performed by the microdilution method in a 96 well plate. Gram-positive bacteria, Staphylococcus aureus (NCTC 10788), methicillin-resistant Staphylococcus aureus (MRSA, NCTC 12493), Enterococcus faecalis (NCTC12697), and Gram-negative bacteria, Escherichia coli (NCTC 10418), Pseudomonas aeruginosa (ATCC 27853), Klebsiella pneumoniae (ATCC 43816) and the pathogenic yeast Candida albicans (NCYC 1467). All bacteria were cultured in MHB and C. albicans was cultured in YPD broth. Norfloxacin and amphotericin B were used as positive controls for bacteria and yeast, respectively.

[3] = test system: Enterococcus faecalis (NCTC12697); type: cell-based
Procedure: as §1

[4] = test system: Pseudomonas aeruginosa (ATCC 27853); type: cell-based
Procedure: as §1

[5] = test system: Staphylococcus aureus (NCTC 10788); type: cell-based
Procedure: as §1

[6] = test system: horse erythrocytes
Procedure: Horse erythrocytes (TCS Biosciences Ltd., Buckingham, UK) were subjected to the hemolysis of all synthetic peptides as described previously [35]. Briefly, the erythrocytes were washed and resuspended by PBS to achieve a 4% suspension. The test peptide solutions were transferred into the aforementioned suspension and kept at a constant 37 °C for 2 h, while Triton X-100 (Sigma-Aldrich, St. Louis, MO, USA) was employed to replace the peptide solution for establishing the positive control. The supernatants after incubation were measured at 470 nm.

[7] = test system: methicillin-resistant Staphylococcus aureus (MRSA, NCTC 12493); type: cell-based
Procedure: as §1

[8] = test system: Klebsiella pneumoniae (ATCC 43816); type: cell-based
Procedure: as §1

[9] = test system: Escherichia coli (NCTC 10418); type: cell-based
Procedure: as §1

| Compound | cytotoxicity on HMEC-1 cells at 100 µM [1] | MIC C. albicans [2] | MBC E. faecalis [3] | MIC E. faecalis [3] | MIC P. aeruginosa [4] | MBC S. aureus [5] | MIC S. aureus [5] | hemolysis of horse erythrocytes at 256 µM [6] | MBC MRSA [7] | MIC MRSA [7] | MBC K. pneumoniae [8] | MIC K. pneumoniae [8] | MBC C. albicans [2] | MBC E. coli [9] | MIC E. coli [9] | MBC P. aeruginosa [4] | drop in cell viability of HMEC-1 cells [1] |
| --- | --- | --- | --- | --- | --- | --- | --- | --- | --- | --- | --- | --- | --- | --- | --- | --- | --- |
| CC(C)C[C@H](NC(=O)[C@H](CCC(N)=O)NC(=O)[C@H](CCC(N)=O)NC(=O)[C@H](C)NC(=O)CNC(=O)[C@H](C)NC(=O)[C@H](CCCCN)NC(=O)CNC(=O)[C@@H](NC(=O)[C@H](CCC(N)=O)NC(=O)[C@H](CCCCN)NC(=O)[C@H](CC(C)C)NC(=O)[C@H](CC(C)C)NC(=O)[C@H](Cc1ccc(O)cc1)NC(=O)[C@H](CCCCN)NC(=O)[C@H](C)NC(=O)CNC(=O)[C@H](C)NC(=O)[C@H](CCCCN)NC(=O)[C@H](Cc1ccccc1)NC(=O)[C@H](CC(C)C)NC(=O)[C@H](CO)NC(=O)[C@H](CO)NC(=O)[C@H](Cc1ccccc1)NC(=O)CN)C(C)C)C(=O)N[C@@H](C)C(=O)N[C@H]1CSSC[C@@H](C(=O)O)NC(=O)[C@H](CC(N)=O)NC(=O)[C@H](CC(N)=O)NC(=O)[C@H](C)NC(=O)[C@H](C)NC(=O)[C@H](CCCCN)NC1=O [BR2GK] (HELM PEPTIDE1{G.F.S.S.L.F.K.A.G.A.K.Y.L.L.K.Q.V.G.K.A.G.A.Q.Q.L.A.C.K.A.A.N.N.C}$PEPTIDE1,PEPTIDE1,27:R3-33:R3$$$V2.0) | significant cytotoxicity | 256 µM (≈ 867 µg/mL) | 256 µM (≈ 867 µg/mL) | 64 µM (≈ 217 µg/mL) | > 512 µM | 256 µM (≈ 867 µg/mL) | 64 µM (≈ 217 µg/mL) | more than 40% | – | – | – | – | – | – | – | – | – |
| GFSSLFKAGAKYLAKQVGKAGAQQL-NH2 [[A^14]BR2GK(1-25)a] | – | 16 µM | 16 µM | 8 µM | 32 µM | 16 µM | 8 µM | – | 64 µM | 16 µM | 256 µM | 128 µM | 32 µM | 32 µM | 8 µM | 128 µM | – |
| GFSSLFKAGAKYLKKQVGKAGAQQL-NH2 [[K^14]BR2GK(1-25)a] | – | 64 µM | 64 µM | 16 µM | 16 µM | 32 µM | 16 µM | – | 128 µM | 64 µM | 256 µM | 128 µM | 128 µM | 32 µM | 8 µM | 64 µM | around 15% |
| GFSSLFKAGAKYLLKQVGKAGAQQL-NH2 [BR2GK(1-25)a] | – | 4 µM | 16 µM | 4 µM | 8 µM | 8 µM | 4 µM | around 20% | 16 µM | 4 µM | 32 µM | 16 µM | 16 µM | 8 µM | 4 µM | 32 µM | around 15% |
| GFSSLFKAGAKYLPKQVGKAGAQQL-NH2 [[P^14]BR2GK(1-25)a] | – | – | – | – | > 512 µM | > 512 µM | 512 µM | – | > 512 µM | > 512 µM | > 512 µM | > 512 µM | – | > 512 µM | > 512 µM | > 512 µM | – |
| GFSSLFKAGAKYLRKQVGKAGAQQL-NH2 [[R^14]BR2GK(1-25)a] | – | 64 µM | 32 µM | 16 µM | 16 µM | 32 µM | 16 µM | – | 128 µM | 64 µM | 256 µM | 128 µM | 128 µM | 16 µM | 8 µM | 32 µM | around 15% |
